Data: PMC11062922 (Nature Chemical Biology, 2023)

Legend:
ULK1 = molecular target: T1, ULK1 (Homo sapiens, UniProt O75385); test: Kinobeads two-dose competition binding: ULK1; conditions: read-out: Lestaurtinib Drugmatrix value, Gene Name ULK1; repeated control pulldowns; each column = experiment id and replicate (Lestaurtinib_02339_R1 ... Lestaurtinib_03260_R3)
T1 construct: to maximize the representation of endogenous proteins; endogenous in cells

MOB1A = molecular target: T2, MOB1A (Homo sapiens, UniProt Q9H8S9); test: Kinobeads full dose-response competition binding: MOB1A; conditions: Gene Name MOB1A
T2 construct: to maximize the representation of endogenous proteins; endogenous in cells
T2 sequence (Q9H8S9 2-216 limits assumed): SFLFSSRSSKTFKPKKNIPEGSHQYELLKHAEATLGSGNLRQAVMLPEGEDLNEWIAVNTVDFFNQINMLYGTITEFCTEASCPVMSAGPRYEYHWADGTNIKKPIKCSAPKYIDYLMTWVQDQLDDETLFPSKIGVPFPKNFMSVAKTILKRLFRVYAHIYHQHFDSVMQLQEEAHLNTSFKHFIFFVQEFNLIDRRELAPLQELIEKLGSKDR
T2 sequence (O95835 1-1130 partner): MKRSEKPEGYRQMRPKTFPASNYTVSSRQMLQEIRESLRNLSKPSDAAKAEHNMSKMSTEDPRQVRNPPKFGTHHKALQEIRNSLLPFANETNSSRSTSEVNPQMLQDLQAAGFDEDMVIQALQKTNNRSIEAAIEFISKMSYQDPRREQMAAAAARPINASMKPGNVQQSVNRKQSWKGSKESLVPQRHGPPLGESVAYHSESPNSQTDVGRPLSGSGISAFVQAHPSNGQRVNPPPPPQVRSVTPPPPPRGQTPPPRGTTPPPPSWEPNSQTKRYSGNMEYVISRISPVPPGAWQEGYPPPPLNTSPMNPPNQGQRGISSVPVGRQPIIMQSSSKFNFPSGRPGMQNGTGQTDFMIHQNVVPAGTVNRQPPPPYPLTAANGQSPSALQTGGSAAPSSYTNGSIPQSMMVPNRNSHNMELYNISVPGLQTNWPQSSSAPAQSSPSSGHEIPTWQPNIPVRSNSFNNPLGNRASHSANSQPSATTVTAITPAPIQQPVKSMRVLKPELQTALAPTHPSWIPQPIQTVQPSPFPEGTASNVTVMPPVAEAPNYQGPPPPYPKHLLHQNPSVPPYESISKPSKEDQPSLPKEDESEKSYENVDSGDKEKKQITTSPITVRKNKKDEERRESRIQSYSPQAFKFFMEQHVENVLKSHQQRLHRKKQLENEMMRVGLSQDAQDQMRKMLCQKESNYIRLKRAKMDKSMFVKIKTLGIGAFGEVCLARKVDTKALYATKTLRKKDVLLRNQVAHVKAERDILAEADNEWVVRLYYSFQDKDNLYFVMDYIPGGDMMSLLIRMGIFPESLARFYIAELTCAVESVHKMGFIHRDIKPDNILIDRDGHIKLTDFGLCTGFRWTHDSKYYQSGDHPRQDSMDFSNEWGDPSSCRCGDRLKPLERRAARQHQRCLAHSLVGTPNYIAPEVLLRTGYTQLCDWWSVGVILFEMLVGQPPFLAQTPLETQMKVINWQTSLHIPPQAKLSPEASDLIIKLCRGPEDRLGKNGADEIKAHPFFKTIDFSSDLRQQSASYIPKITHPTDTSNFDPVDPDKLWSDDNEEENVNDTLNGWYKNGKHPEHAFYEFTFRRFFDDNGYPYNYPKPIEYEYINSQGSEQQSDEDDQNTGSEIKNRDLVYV

[1] = molecular target: T3, endogenous kinases and other proteins enriched by Kinobeads from mixed cancer cell lysates (Homo sapiens, UniProt O14965); test: Kinobeads pulldown, full dose-response (eight doses); type: binding; conditions: target AURKA;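 note: competition with Kinobeads ε after inhibitor preincubation in lysate (5 mg/ml protein) for 45 min at 4 °C, DMSO control, doses 0.3–1,000 nM, label-free LC–MS/MS quantification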
T3 construct: endogenous in cells

[2] = molecular target: T4, endogenous kinases and other proteins enriched by Kinobeads from mixed cancer cell lysates (Homo sapiens, UniProt Q9P289); test: as above; type: binding; conditions: target STK26
T4 construct: endogenous in cells

[3] = molecular target: T5, endogenous kinases and other proteins enriched by Kinobeads from mixed cancer cell lysates (Homo sapiens, UniProt Q13188); test: as above; type: binding; conditions: target STK3
T5 construct: endogenous in cells

[4] = molecular target: T6, endogenous kinases and other proteins enriched by Kinobeads from mixed cancer cell lysates (Homo sapiens, UniProt Q13873); test: as above; type: binding; conditions: target BMPR2
T6 construct: endogenous in cells

[5] = molecular target: T7, endogenous kinases and other proteins enriched by Kinobeads from mixed cancer cell lysates (Homo sapiens, UniProt O60285); test: as above; type: binding; conditions: target NUAK1
T7 construct: endogenous in cells

[6] = molecular target: T8, endogenous kinases and other proteins enriched by Kinobeads from mixed cancer cell lysates (Homo sapiens, UniProt Q9NQS7); test: as above; type: binding; conditions: target INCENP
T8 construct: endogenous in cells

[7] = molecular target: T9, endogenous kinases and other proteins enriched by Kinobeads from mixed cancer cell lysates (Homo sapiens, UniProt P27448); test: as above; type: binding; conditions: target MARK3
T9 construct: endogenous in cells

[8] = molecular target: T10, endogenous kinases and other proteins enriched by Kinobeads from mixed cancer cell lysates (Homo sapiens, UniProt P11274); test: as above; type: binding; conditions: target BCR
T10 construct: endogenous in cells

[9] = molecular target: T11, endogenous kinases and other proteins enriched by Kinobeads from mixed cancer cell lysates (Homo sapiens, UniProt Q96L34); test: as above; type: binding; conditions: target MARK4
T11 construct: endogenous in cells

[10] = molecular target: T12, endogenous kinases and other proteins enriched by Kinobeads from mixed cancer cell lysates (Homo sapiens, UniProt Q15831); test: as above; type: binding; conditions: target STK11
T12 construct: endogenous in cells

[11] = molecular target: T13, endogenous kinases and other proteins enriched by Kinobeads from mixed cancer cell lysates (Homo sapiens, UniProt O00444); test: as above; type: binding; conditions: target PLK4
T13 construct: endogenous in cells

[12] = molecular target: T14, endogenous kinases and other proteins enriched by Kinobeads from mixed cancer cell lysates (Homo sapiens, UniProt Q13043); test: as above; type: binding; conditions: target STK4
T14 construct: endogenous in cells

[13] = molecular target: T15, endogenous kinases and other proteins enriched by Kinobeads from mixed cancer cell lysates (Homo sapiens, UniProt Q9NWZ3); test: as above; type: binding; conditions: target IRAK4
T15 construct: endogenous in cells
T15 sequence (Q9NWZ3 whole entry): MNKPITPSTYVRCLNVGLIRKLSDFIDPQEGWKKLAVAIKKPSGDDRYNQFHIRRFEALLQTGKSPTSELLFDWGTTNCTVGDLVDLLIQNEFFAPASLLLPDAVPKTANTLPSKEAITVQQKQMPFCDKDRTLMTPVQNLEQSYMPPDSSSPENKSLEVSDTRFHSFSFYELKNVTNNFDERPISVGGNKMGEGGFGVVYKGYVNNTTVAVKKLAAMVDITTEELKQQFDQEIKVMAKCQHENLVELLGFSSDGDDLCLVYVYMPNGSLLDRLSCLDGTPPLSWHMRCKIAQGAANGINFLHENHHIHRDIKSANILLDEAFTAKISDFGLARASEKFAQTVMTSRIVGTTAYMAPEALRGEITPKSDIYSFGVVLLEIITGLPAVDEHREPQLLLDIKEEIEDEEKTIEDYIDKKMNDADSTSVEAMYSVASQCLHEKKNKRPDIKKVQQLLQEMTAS

T9 sequence (P27448 whole entry): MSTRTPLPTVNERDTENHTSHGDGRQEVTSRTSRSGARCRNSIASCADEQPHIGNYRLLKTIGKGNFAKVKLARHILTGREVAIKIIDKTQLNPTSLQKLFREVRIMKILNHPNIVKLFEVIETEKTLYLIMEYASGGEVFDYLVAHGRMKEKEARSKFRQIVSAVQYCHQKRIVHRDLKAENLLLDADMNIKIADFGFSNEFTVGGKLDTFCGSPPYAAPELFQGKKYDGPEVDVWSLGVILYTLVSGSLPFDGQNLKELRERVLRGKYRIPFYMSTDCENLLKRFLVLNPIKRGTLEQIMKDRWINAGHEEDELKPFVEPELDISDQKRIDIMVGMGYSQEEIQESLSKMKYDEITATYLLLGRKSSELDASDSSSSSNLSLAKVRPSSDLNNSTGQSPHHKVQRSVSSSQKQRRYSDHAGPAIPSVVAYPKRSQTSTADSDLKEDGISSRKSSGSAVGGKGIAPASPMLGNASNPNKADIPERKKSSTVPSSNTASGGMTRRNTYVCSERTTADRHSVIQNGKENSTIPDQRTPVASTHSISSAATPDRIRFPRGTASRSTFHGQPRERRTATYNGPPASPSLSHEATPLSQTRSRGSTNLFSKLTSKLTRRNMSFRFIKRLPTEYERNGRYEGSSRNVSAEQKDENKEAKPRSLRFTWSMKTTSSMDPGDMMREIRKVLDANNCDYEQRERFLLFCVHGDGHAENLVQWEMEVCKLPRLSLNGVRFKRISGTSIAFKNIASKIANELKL
T13 sequence (O00444 whole entry): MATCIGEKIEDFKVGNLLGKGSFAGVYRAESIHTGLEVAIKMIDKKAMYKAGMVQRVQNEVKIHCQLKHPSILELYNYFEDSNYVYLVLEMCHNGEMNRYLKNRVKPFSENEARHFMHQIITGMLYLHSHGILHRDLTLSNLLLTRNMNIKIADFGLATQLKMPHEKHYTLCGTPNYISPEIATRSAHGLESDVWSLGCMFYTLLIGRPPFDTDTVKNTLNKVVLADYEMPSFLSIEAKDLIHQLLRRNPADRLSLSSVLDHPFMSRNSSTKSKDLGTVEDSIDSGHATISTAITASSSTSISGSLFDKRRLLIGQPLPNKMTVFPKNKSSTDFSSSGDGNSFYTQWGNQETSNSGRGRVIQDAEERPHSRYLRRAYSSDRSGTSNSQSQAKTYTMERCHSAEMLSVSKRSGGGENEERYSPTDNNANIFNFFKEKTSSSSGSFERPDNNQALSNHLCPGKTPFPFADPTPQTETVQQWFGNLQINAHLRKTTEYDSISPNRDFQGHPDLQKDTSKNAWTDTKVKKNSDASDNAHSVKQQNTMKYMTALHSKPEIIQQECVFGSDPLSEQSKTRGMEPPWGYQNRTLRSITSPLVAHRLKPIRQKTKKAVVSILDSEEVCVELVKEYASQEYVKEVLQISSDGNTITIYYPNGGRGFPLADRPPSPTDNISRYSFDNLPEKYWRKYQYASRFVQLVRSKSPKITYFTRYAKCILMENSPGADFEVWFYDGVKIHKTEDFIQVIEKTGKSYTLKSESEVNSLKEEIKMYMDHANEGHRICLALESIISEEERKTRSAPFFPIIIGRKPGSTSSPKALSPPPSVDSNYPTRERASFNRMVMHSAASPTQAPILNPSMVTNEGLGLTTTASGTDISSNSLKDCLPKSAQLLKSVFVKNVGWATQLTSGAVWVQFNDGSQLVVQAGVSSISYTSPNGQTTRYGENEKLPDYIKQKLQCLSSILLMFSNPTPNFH
T4 sequence (Q9P289 whole entry): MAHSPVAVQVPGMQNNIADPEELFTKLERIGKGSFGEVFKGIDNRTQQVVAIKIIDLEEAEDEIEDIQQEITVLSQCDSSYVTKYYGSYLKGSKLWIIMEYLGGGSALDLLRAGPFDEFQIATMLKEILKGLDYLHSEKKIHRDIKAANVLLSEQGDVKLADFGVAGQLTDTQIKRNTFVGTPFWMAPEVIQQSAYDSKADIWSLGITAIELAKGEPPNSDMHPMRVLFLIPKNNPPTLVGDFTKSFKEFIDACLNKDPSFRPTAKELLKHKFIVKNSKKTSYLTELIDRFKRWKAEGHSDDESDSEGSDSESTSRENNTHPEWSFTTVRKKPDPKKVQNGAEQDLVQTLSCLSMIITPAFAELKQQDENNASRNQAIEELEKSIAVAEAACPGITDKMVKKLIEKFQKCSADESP
T11 sequence (Q96L34 whole entry): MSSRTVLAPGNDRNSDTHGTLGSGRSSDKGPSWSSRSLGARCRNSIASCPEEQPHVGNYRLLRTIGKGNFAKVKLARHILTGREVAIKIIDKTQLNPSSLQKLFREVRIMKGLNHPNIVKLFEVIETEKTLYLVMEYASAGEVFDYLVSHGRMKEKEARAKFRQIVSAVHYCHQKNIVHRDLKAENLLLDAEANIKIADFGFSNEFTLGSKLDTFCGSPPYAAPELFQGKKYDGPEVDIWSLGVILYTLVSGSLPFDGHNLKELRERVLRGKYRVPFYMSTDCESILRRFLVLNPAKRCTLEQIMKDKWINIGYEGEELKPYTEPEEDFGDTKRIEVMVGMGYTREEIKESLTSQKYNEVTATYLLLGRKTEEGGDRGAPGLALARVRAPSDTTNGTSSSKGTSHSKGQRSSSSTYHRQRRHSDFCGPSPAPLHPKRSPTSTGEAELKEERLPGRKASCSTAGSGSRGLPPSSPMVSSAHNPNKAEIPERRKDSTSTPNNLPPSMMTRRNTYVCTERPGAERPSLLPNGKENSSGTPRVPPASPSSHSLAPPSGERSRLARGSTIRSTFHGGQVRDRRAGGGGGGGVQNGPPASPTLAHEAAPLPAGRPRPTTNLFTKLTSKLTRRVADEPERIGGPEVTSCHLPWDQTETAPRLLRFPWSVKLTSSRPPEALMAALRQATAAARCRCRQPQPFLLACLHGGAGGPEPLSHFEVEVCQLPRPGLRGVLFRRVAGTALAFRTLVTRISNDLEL
T12 sequence (Q15831 whole entry): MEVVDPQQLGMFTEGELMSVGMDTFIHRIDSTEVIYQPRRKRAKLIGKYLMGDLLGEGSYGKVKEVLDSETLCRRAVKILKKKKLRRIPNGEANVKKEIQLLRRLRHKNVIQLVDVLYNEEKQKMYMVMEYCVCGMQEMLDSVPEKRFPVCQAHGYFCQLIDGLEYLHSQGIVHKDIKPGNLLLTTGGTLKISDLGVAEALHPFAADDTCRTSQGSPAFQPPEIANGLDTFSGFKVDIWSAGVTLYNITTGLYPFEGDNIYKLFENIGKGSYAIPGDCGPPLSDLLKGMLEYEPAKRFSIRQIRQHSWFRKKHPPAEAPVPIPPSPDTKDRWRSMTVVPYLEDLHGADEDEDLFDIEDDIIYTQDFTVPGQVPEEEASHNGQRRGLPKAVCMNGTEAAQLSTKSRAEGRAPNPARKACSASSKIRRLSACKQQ
T10 sequence (P11274 whole entry): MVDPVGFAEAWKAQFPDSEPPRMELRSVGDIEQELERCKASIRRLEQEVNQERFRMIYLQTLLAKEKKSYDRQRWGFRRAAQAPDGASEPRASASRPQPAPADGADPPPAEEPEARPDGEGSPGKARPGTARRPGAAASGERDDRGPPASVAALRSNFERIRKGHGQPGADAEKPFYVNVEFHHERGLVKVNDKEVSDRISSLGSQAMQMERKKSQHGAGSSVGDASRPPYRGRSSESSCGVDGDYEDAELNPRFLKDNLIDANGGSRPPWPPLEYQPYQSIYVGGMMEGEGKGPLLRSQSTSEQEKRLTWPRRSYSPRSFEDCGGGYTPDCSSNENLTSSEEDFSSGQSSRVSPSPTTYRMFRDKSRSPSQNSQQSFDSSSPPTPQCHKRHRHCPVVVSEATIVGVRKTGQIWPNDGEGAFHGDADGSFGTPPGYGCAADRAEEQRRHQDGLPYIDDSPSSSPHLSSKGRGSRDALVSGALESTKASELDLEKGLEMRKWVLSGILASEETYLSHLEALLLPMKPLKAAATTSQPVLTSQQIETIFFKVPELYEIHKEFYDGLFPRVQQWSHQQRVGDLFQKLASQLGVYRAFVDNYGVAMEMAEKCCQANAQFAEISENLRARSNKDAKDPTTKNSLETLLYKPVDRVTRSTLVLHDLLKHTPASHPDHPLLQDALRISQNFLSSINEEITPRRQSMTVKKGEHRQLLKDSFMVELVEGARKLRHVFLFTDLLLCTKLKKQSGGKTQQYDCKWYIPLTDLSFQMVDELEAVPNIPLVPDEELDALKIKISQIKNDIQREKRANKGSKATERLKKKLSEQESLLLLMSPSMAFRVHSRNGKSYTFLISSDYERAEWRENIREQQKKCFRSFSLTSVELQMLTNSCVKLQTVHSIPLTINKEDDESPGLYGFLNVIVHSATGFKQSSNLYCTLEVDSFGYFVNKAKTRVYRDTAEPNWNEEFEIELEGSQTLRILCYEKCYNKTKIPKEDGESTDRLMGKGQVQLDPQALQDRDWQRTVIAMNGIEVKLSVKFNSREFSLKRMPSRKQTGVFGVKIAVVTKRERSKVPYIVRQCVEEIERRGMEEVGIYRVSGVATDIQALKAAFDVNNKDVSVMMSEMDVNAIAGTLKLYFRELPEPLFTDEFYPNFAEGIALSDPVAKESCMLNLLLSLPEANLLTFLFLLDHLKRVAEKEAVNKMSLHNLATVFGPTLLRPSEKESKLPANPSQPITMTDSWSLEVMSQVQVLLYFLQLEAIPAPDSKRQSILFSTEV

SMILES: C[C@]12O[C@H](C[C@]1(O)CO)n1c3ccccc3c3c4c(c5c6ccccc6n2c5c31)CNC4=O [Lestaurtinib]
- potency estimated from few doses (ULK1): 549 nM

SMILES: CCn1c(-c2nonc2N)nc2c(C#CC(C)(C)O)nc(OCCN)cc21 [GSK902056A]
- Relative Intensity 0.3nM (MOB1A; 0.3nM compound, DMSO = 1): 1.163
- Relative Intensity 1nM (MOB1A; 1nM compound, DMSO = 1): 0.99
- Relative Intensity 3nM (MOB1A; 3nM compound, DMSO = 1): 1.359
- Relative Intensity 10nM (MOB1A; 10nM compound, DMSO = 1): 0.9582
- Relative Intensity 30nM (MOB1A; 30nM compound, DMSO = 1): 0.9019
- Relative Intensity 100nM (MOB1A; 100nM compound, DMSO = 1): 0.7347
- Relative Intensity 300nM (MOB1A; 300nM compound, DMSO = 1): 0.3297
- Relative Intensity 1000nM (MOB1A; 1000nM compound, DMSO = 1): 0
- Kd (MOB1A; EC50 with Correction, doses in nM, read-out: apparent Kd): 223 nM
- EC50 (MOB1A; eight-dose curve fit, doses in nM): 223 nM

SMILES: Cn1cc(-c2nc(N[C@@H]3CCCC[C@@H]3N)c(F)c3c2C(=O)NC3)cn1 [TAK659]
- EC50 [1]: 1280 nM
- Kd ([1]; read-out: apparent Kd): 590 nM
- EC50 [2]: 363 nM
- Kd ([2]; read-out: apparent Kd): 275 nM
- EC50 [3]: 742 nM
- Kd ([3]; read-out: apparent Kd): 683 nM
- EC50 [4]: 325 nM
- Kd ([4]; read-out: apparent Kd): 257 nM
- EC50 [5]: 1020 nM
- Kd ([5]; read-out: apparent Kd): 312 nM
- EC50 [6]: 150 nM
- Kd ([6]; read-out: apparent Kd): 150 nM
- EC50 [7]: 680 nM
- Kd ([7]; read-out: apparent Kd): 670 nM
- EC50 [8]: 1020 nM
- Kd ([8]; read-out: apparent Kd): 528 nM
- EC50 [9]: 1050 nM
- Kd ([9]; read-out: apparent Kd): 1050 nM
- EC50 [10]: 1150 nM
- Kd ([10]; read-out: apparent Kd): 1150 nM
- EC50 [11]: 148 nM
- Kd ([11]; read-out: apparent Kd): 77.2 nM
- EC50 [12]: 628 nM
- Kd ([12]; read-out: apparent Kd): 567 nM
- EC50 [13]: 718 nM
- Kd ([13]; read-out: apparent Kd): 675 nM
